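Cultured in 96-well plates, cells were exposed to test compound for 48 hours across five concentrations. Abbreviation: GI50, concentration required for 50% inhibition of growth. TGI: total growth inhibition.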
Legend:
Assay in all cases: NCI tumour cell line growth inhibition, 48 h; in the data active means GI50 below about 0.43 µM; inactive means the rest
HS 578T breast = tested on: HS 578T breast
NCI-H460 lung = tested on: NCI-H460 lung
SF-295 CNS = tested on: SF-295 CNS
NCI-H226 lung = tested on: NCI-H226 lung
SNB-19 CNS = tested on: SNB-19 CNS
CAKI-1 renal = tested on: CAKI-1 renal
HOP-62 NSCLC = tested on: HOP-62 NSCLC
HCT-116 colon = tested on: HCT-116 colon
DU-145 prostate = tested on: DU-145 prostate
UO-31 renal = tested on: UO-31 renal
SK-MEL-2 melanoma = tested on: SK-MEL-2 melanoma
UACC-257 melanoma = tested on: UACC-257 melanoma
BT-549 breast = tested on: BT-549 breast
NCI-H522 lung = tested on: NCI-H522 lung
CCRF-CEM leukemia = tested on: CCRF-CEM leukemia
A549 NSCLC = tested on: A549 NSCLC
786-0 renal = tested on: 786-0 renal
A498 renal = tested on: A498 renal
K-562 leukemia = tested on: K-562 leukemia
HCC-2998 colon = tested on: HCC-2998 colon
ACHN renal = tested on: ACHN renal
HCT-15 colon = tested on: HCT-15 colon
SR leukemia = tested on: SR leukemia
KM12 colon = tested on: KM12 colon
U251 CNS = tested on: U251 CNS
MOLT-4 leukemia = tested on: MOLT-4 leukemia
SNB-75 CNS = tested on: SNB-75 CNS
T-47D breast = tested on: T-47D breast
HOP-92 NSCLC = tested on: HOP-92 NSCLC
OVCAR-8 ovarian = tested on: OVCAR-8 ovarian
SK-OV-3 ovarian = tested on: SK-OV-3 ovarian
M14 melanoma = tested on: M14 melanoma
OVCAR-5 ovarian = tested on: OVCAR-5 ovarian
NCI/ADR-RES ovarian = tested on: NCI/ADR-RES ovarian
UACC-62 melanoma = tested on: UACC-62 melanoma
IGROV1 ovarian = tested on: IGROV1 ovarian
RXF 393 renal = tested on: RXF 393 renal
RPMI-8226 leukemia = tested on: RPMI-8226 leukemia
SK-MEL-5 melanoma = tested on: SK-MEL-5 melanoma
HT29 colon = tested on: HT29 colon
OVCAR-4 ovarian = tested on: OVCAR-4 ovarian
TK-10 renal = tested on: TK-10 renal
COLO 205 colon = tested on: COLO 205 colon
MCF7 breast = tested on: MCF7 breast
EKVX NSCLC = tested on: EKVX NSCLC
LOX IMVI melanoma = tested on: LOX IMVI melanoma
SW-620 colon = tested on: SW-620 colon
MDA-MB-231 breast = tested on: MDA-MB-231 breast
PC-3 prostate = tested on: PC-3 prostate
SF-539 CNS = tested on: SF-539 CNS
SK-MEL-28 melanoma = tested on: SK-MEL-28 melanoma
SF-268 CNS = tested on: SF-268 CNS
SN12C renal = tested on: SN12C renal
HL-60(TB) leukemia = tested on: HL-60(TB) leukemia
NCI-H23 lung = tested on: NCI-H23 lung
MALME-3M melanoma = tested on: MALME-3M melanoma

COc1ccc(-c2conc2-c2ccccc2)cc1
11000 nM: TGI (KM12 colon)
> 100000 nM: TGI (SF-295 CNS) | TGI (SNB-19 CNS) | TGI (CAKI-1 renal) | TGI (HOP-62 NSCLC) | TGI (HCT-116 colon) | TGI (SK-MEL-2 melanoma) | TGI (UACC-257 melanoma) | TGI (CCRF-CEM leukemia) | TGI (A549 NSCLC) | TGI (K-562 leukemia) | TGI (ACHN renal) | TGI (HCT-15 colon) | TGI (SR leukemia) | TGI (U251 CNS) | TGI (MOLT-4 leukemia) | TGI (T-47D breast) | TGI (OVCAR-8 ovarian) | TGI (SK-OV-3 ovarian) | TGI (M14 melanoma) | TGI (OVCAR-5 ovarian) | TGI (NCI/ADR-RES ovarian) | TGI (UACC-62 melanoma) | TGI (IGROV1 ovarian) | TGI (RXF 393 renal) | TGI (HT29 colon) | TGI (OVCAR-4 ovarian) | TGI (TK-10 renal) | TGI (MCF7 breast) | TGI (EKVX NSCLC) | TGI (LOX IMVI melanoma) | TGI (SW-620 colon) | TGI (PC-3 prostate) | TGI (SK-MEL-28 melanoma) | TGI (SF-268 CNS) | TGI (SN12C renal) | TGI (NCI-H23 lung)
40900 nM: TGI (UO-31 renal)
active: GI50 (HS 578T breast) 267 nM | GI50 (NCI-H460 lung) 324 nM | GI50 (SF-295 CNS) 317 nM | GI50 (CAKI-1 renal) 246 nM | GI50 (HCT-116 colon) 318 nM | GI50 (DU-145 prostate) 416 nM | GI50 (NCI-H522 lung) 170 nM | GI50 (CCRF-CEM leukemia) 292 nM | GI50 (A498 renal) 107 nM | GI50 (K-562 leukemia) 60.3 nM | GI50 (HCT-15 colon) 99 nM | GI50 (SR leukemia) 155 nM | GI50 (KM12 colon) 108 nM | GI50 (SNB-75 CNS) 109 nM | GI50 (T-47D breast) 329 nM | GI50 (M14 melanoma) 268 nM | GI50 (NCI/ADR-RES ovarian) 142 nM | GI50 (RXF 393 renal) 249 nM | GI50 (HT29 colon) 112 nM | GI50 (COLO 205 colon) 248 nM | GI50 (MCF7 breast) 86.5 nM | GI50 (SW-620 colon) 81 nM | GI50 (PC-3 prostate) 363 nM | GI50 (SF-539 CNS) 272 nM | GI50 (HL-60(TB) leukemia) 288 nM
4470 nM: TGI (SK-MEL-5 melanoma)
> 27500 nM: TGI (MDA-MB-231 breast)
12800 nM: TGI (BT-549 breast)
41900 nM: TGI (RPMI-8226 leukemia)
455 nM: TGI (SNB-75 CNS)
> 76400 nM: TGI (HOP-92 NSCLC)
15900 nM: TGI (NCI-H522 lung)
> 80100 nM: TGI (MALME-3M melanoma)
1420 nM: TGI (COLO 205 colon)
580 nM: TGI (A498 renal)
14700 nM: TGI (HCC-2998 colon)
1410 nM: TGI (HL-60(TB) leukemia)
4370 nM: TGI (NCI-H460 lung)
> 25600 nM: TGI (NCI-H226 lung)
3870 nM: TGI (SF-539 CNS)
inactive: GI50 (NCI-H226 lung) 2420 nM | GI50 (SNB-19 CNS) 647 nM | GI50 (HOP-62 NSCLC) 430 nM | GI50 (UO-31 renal) 640 nM | GI50 (SK-MEL-2 melanoma) 585 nM | GI50 (UACC-257 melanoma) 18300 nM | GI50 (BT-549 breast) 940 nM | GI50 (A549 NSCLC) 502 nM | GI50 (786-0 renal) 1280 nM | GI50 (HCC-2998 colon) 534 nM | GI50 (ACHN renal) 1100 nM | GI50 (U251 CNS) 468 nM | GI50 (MOLT-4 leukemia) 706 nM | GI50 (HOP-92 NSCLC) 4580 nM | GI50 (OVCAR-8 ovarian) 604 nM | GI50 (SK-OV-3 ovarian) 501 nM | GI50 (OVCAR-5 ovarian) 832 nM | GI50 (UACC-62 melanoma) 689 nM | GI50 (IGROV1 ovarian) 498 nM | GI50 (RPMI-8226 leukemia) 453 nM | GI50 (SK-MEL-5 melanoma) 441 nM | GI50 (OVCAR-4 ovarian) 2350 nM | GI50 (TK-10 renal) 15300 nM | GI50 (EKVX NSCLC) 2640 nM | GI50 (LOX IMVI melanoma) 612 nM | GI50 (MDA-MB-231 breast) 615 nM | GI50 (SK-MEL-28 melanoma) 10800 nM | GI50 (SF-268 CNS) 1670 nM | GI50 (SN12C renal) 1000 nM | GI50 (NCI-H23 lung) 549 nM | GI50 (MALME-3M melanoma) 4950 nM
53000 nM: TGI (786-0 renal)

Source: PubChem BioAssay (NCI)
